The results in this text go back to patent US11440913B2, “Aminoimidazopyridazines as kinase inhibitors” (BRISTOL-MYERS SQUIBB COMPANY, priority 2017, dated 2022).

Counter-ions that a name gives are not always drawn. Like-named read-outs stand apart in the source and are kept apart here.

Assay [1] concerns the target His-GST-TVMV-hRIPK1(1-324) (Homo sapiens (Human), UniProt Q13546). In words: RIPK1 HTRF Binding Assay. The conditions noted are these: HTRF binding, 1 h at rt; read-out: RIPK1 (IC50). The gist of the method: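 HTRF probe-displacement binding: 1 nM His-GST-TVMV-hRIPK1(1-324) (baculovirus construct), 90.6 nM probe, 0.2 nM anti-GST-Tb in 20 mM HEPES, 10 mM MgCl2, 0.015% Brij-35, 4 mM DTT, 0.05 mg/mL BSA. Incubated 1 h at rt; FRET 520/495 nm ratio, inhibition relative to DMSO-only wells.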
On the technique in general: TR-FRET usually uses a lanthanide donor and a delayed reading to cut background.

Assay [2] relates to MLKL phosphorylation in HT29-L23 human colorectal adenocarcinoma cells. In words: MLKL Phosphorylation High-Content Assay. In kind it is cell-based. The conditions noted are these: 6 h, necroptosis induced with TNFα, SMAC mimetic and Z-VAD, read-out: pMLKL (IC50). Summed up: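 HT29-L23 cells pretreated 30 min at 37 °C with compound (6.25 to 0.106 μM final), then necroptosis induced with TNFα 35 ng/mL, SMAC mimetic 700 nM and Z-VAD 140 nM for 6 h. Fixed cells immunostained for MLKL pS358 and imaged; IC50 and Ymax from 4-parameter logistic fit.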

Chain of His-GST-TVMV-hRIPK1(1-324) (Q13546 1-324): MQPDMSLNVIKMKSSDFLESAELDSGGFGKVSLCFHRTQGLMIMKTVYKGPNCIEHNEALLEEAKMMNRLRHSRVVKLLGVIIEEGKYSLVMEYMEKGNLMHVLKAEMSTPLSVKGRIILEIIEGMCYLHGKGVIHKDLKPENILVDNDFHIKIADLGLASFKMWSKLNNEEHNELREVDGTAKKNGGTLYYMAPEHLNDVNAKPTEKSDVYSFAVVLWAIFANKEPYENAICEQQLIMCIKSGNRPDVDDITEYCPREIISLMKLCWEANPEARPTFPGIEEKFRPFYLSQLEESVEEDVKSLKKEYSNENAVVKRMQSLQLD

One may read the IC50 as the point on the concentration scale where inhibition reaches its midpoint. Consider `COc1nc(C)c(-c2ccc3nc(NC(C)=O)cn3n2)cc1C(=O)NCc1c(F)cc(F)cc1OCC1CCCC1` [Example 308, N-{[2-(cyclopentylmethoxy)-4,6-difluorophenyl]methyl}-5-{2-acetamidoimidazo[1,2-b]pyridazin-6-yl}-2-methoxy-6-methylpyridine-3-carboxamide], for which the IC50 in assay [1] is 8 nM; in assay [2] (Homo sapiens) it was 11 nM.

In the case of `COc1nc(C)c(-c2ccc3nc(NC(C)=O)cn3n2)cc1C(=O)NCc1cccc(OCC2CC2)c1` [Example 309, N-{[3-(cyclopropylmethoxy)phenyl]methyl}-5-{2-acetamidoimidazo[1,2-b]pyridazin-6-yl}-2-methoxy-6-methylpyridine-3-carboxamide], the IC50 in assay [1] came out at 19 nM; in assay [2] (Homo sapiens), 46 nM.

With `COc1nc(C)c(-c2ccc3nc(NC(C)=O)cn3n2)cc1C(=O)NCc1ccccc1OCC1CCC(F)(F)CC1` [Example 310, N-({2-[(4,4-difluorocyclohexyl)methoxy]phenyl}methyl)-5-{2-acetamidoimidazo[1,2-b]pyridazin-6-yl}-2-methoxy-6-methylpyridine-3-carboxamide], the IC50 in assay [1] is 21 nM; in assay [2] (Homo sapiens), 125 nM.

On to `COc1nc(C)c(-c2ccc3nc(NC(C)=O)cn3n2)cc1C(=O)NCc1cc(OC(F)(F)F)ccc1F` [Example 311, 5-{2-acetamidoimidazo[1,2-b]pyridazin-6-yl}-N-{[2-fluoro-5-(trifluoromethoxy)phenyl]methyl}-2-methoxy-6-methylpyridine-3-carboxamide, TFA], for which the IC50 came out at 6 nM in assay [1] and 4 nM in assay [2].

For `COc1nc(C)c(-c2ccc3nc(NC(C)=O)cn3n2)cc1C(=O)NCc1ncccc1OCC1CCCC1` [Example 312, N-{[3-(cyclopentylmethoxy)pyridin-2-yl]methyl}-5-{2-acetamidoimidazo[1,2-b]pyridazin-6-yl}-2-methoxy-6-methylpyridine-3-carboxamide, 2 TFA], the IC50 in assay [1] worked out at 7 nM; in assay [2], 38 nM.

`COc1nc(C)c(-c2ccc3nc(NC(C)=O)cn3n2)cc1C(=O)NCc1cccnc1OCC1CCCC1` [Example 313, N-{[2-(cyclopentylmethoxy)pyridin-3-yl]methyl}-5-{2-acetamidoimidazo[1,2-b]pyridazin-6-yl}-2-methoxy-6-methylpyridine-3-carboxamide]: the IC50 in assay [1] was determined as 9 nM; in assay [2] (Homo sapiens) it was 22 nM.

Consider `COc1nc(C)c(-c2ccc3nc(NC(C)=O)cn3n2)cc1C(=O)NCc1cccnc1OCC1CCC1` [Example 314, N-{[2-(cyclobutylmethoxy)pyridin-3-yl]methyl}-5-{2-acetamidoimidazo[1,2-b]pyridazin-6-yl}-2-methoxy-6-methylpyridine-3-carboxamide], for which the values for the IC50 in assay [1] and in assay [2] (Homo sapiens) were 5 nM and 3 nM, respectively.

For the compound `COc1nc(C)c(-c2ccc3nc(NC(C)=O)cn3n2)cc1C(=O)NCc1cc(F)ccc1OCC1CCCC1` [Example 315, N-{[2-(cyclopentylmethoxy)-5-fluorophenyl]methyl}-5-{2-acetamidoimidazo[1,2-b]pyridazin-6-yl}-2-methoxy-6-methylpyridine-3-carboxamide], the IC50 worked out at 5 nM in assay [1] and 9 nM in assay [2] (Homo sapiens).

As to `COc1nc(C)c(-c2ccc3nc(NC(C)=O)cn3n2)cc1C(=O)NCc1ccccc1OCC1CCCC1` [Example 316, N-{[2-(cyclopentylmethoxy)phenyl]methyl}-5-{2-acetamidoimidazo[1,2-b]pyridazin-6-yl}-2-methoxy-6-methylpyridine-3-carboxamide], the IC50 in assay [1] was 4 nM; in assay [2] (Homo sapiens), 8 nM.

Turning to `COc1nc(C)c(-c2ccc3nc(NC(C)=O)cn3n2)cc1C(=O)NCc1ccc(F)cc1OCC1CC1` [Example 317, N-{[2-(cyclopropylmethoxy)-4-fluorophenyl]methyl}-5-{2-acetamidoimidazo[1,2-b]pyridazin-6-yl}-2-methoxy-6-methylpyridine-3-carboxamide], the IC50 in assay [1] was found to be 3 nM; in assay [2] (Homo sapiens) it was 19 nM.

As for `COc1nc(C)c(-c2ccc3nc(NC(C)=O)cn3n2)cc1C(=O)NCc1ccccc1OCC1CC1` [Example 318, N-{[2-(cyclopropylmethoxy)phenyl]methyl}-5-{2-acetamidoimidazo[1,2-b]pyridazin-6-yl}-2-methoxy-6-methylpyridine-3-carboxamide], the IC50 in assay [1] amounted to 3 nM; in assay [2] (Homo sapiens), 2 nM.

In the case of `COc1nc(C)c(-c2ccc3nc(NC(C)=O)cn3n2)cc1C(=O)NCc1cccc(OC(F)(F)F)c1` [Example 319, 5-{2-acetamidoimidazo[1,2-b]pyridazin-6-yl}-2-methoxy-6-methyl-N-{[3-(trifluoromethoxy)phenyl]methyl}pyridine-3-carboxamide], the IC50 came out at 15 nM in assay [1] and 29 nM in assay [2] (Homo sapiens).

For `CC(=O)Nc1cn2nc(-c3cc(C(=O)NCc4cc(F)ccc4OC(F)(F)F)cnc3Cl)ccc2n1` [Example 321, 6-chloro-5-{2-acetamidoimidazo[1,2-b]pyridazin-6-yl}-N-{[5-fluoro-2-(trifluoromethoxy)phenyl]methyl}pyridine-3-carboxamide], the values for the IC50 in assay [1] and in assay [2] (Homo sapiens) were 44 nM and 386 nM, respectively.

Turning to `CC(=O)Nc1cn2nc(-c3cc(C(=O)NCc4cc(F)ccc4OC(F)(F)F)cnc3Cl)ccc2n1` [Example 322, 6-chloro-5-{2-acetamidoimidazo[1,2-b]pyridazin-6-yl}-N-{[5-fluoro-2-(trifluoromethoxy)phenyl]methyl}pyridine-3-carboxamide], the IC50 in assay [1] is 8 nM; in assay [2] it was 51 nM.

As to `CC(=O)Nc1cn2nc(-c3cc(C(=O)NCc4c(F)cccc4OCC(F)(F)F)c(C)nc3C)ccc2n1` [Example 325, 5-{2-acetamidoimidazo[1,2-b]pyridazin-6-yl}-N-{[2-fluoro-6-(2,2,2-trifluoroethoxy)phenyl]methyl}-2,6-dimethylpyridine-3-carboxamide], the IC50 in assay [1] came out at 9 nM; in assay [2] (Homo sapiens), 17 nM.

As for `CC(=O)Nc1cn2nc(-c3cc(C(=O)NCc4cc(OCC5CC5)ccc4F)c(C)nc3C)ccc2n1` [Example 326, N-{[5-(cyclopropylmethoxy)-2-fluorophenyl]methyl}-5-{2-acetamidoimidazo[1,2-b]pyridazin-6-yl}-2,6-dimethylpyridine-3-carboxamide], the IC50 amounted to 6 nM in assay [1] and 10 nM in assay [2] (Homo sapiens).

As to `CC(=O)OCC(=O)Nc1cn2nc(-c3cc(C(=O)NCc4cc(OC(F)(F)F)ccc4F)c(C)nc3C)ccc2n1` [Example 327, ({6-[5-({[2-fluoro-5-(trifluoromethoxy)phenyl]methyl}carbamoyl)-2,6-dimethylpyridin-3-yl]imidazo[1,2-b]pyridazin-2-yl}carbamoyl)methyl acetate], the IC50 in assay [1] worked out at 5 nM; in assay [2] (Homo sapiens) it was 25 nM.

Turning to `CCc1ncc(-c2ccc3nc(NC(C)=O)cn3n2)cc1C(=O)N[C@H](C)c1cc(OC(F)(F)F)ccc1F` [Example 328, 5-{2-acetamidoimidazo[1,2-b]pyridazin-6-yl}-2-ethyl-N-[(1R)-1-[2-fluoro-5-(trifluoromethoxy)phenyl]ethyl]pyridine-3-carboxamide], the results for the concentration for half-maximal inhibition (IC50) in assay [1] and in assay [2] (Homo sapiens) were 36 nM and 198 nM, respectively.

On to `CCc1ncc(-c2ccc3nc(NC(C)=O)cn3n2)cc1C(=O)NCc1cc(C(F)(F)F)ccc1F` [Example 329, 5-{2-acetamidoimidazo[1,2-b]pyridazin-6-yl}-2-ethyl-N-{[2-fluoro-5-(trifluoromethyl)phenyl]methyl}pyridine-3-carboxamide], for which the IC50 in assay [1] amounted to 53 nM; in assay [2] (Homo sapiens), 88 nM.

As to `CC(=O)Nc1cn2nc(-c3cnc(C)c(C(=O)N(C)[C@H](C)c4cc(OC(F)(F)F)ccc4F)c3)ccc2n1` [Example 330, 5-{2-acetamidoimidazo[1,2-b]pyridazin-6-yl}-N-[(1R)-1-[2-fluoro-5-(trifluoromethoxy)phenyl]ethyl]-N,2-dimethylpyridine-3-carboxamide], the IC50 in assay [1] was 46 nM; in assay [2] (Homo sapiens), 106 nM.

In the case of `Cc1ncc(-c2ccc3nc(NC(=O)CN4CCN(C)CC4)cn3n2)cc1C(=O)N[C@H](C)c1cc(C(F)(F)F)ccc1F` [Example 332, N-[(1R)-1-[2-fluoro-5-(trifluoromethyl)-phenyl]ethyl]-2-methyl-5-{2-[2-(4-methylpiperazin-1-yl)acetamido]imidazo[1,2-b]pyridazin-6-yl}pyridine-3-carboxamide], the half-maximal inhibitory concentration (IC50) came to 308 nM in assay [1] and 25 nM in assay [2] (Homo sapiens).

For `Cc1ncc(-c2ccc3nc(NC(=O)CN4CCCC4)cn3n2)cc1C(=O)N[C@H](C)c1cc(C(F)(F)F)ccc1F` [Example 333, N-[(1R)-1-[2-fluoro-5-(trifluoromethyl)-phenyl]ethyl]-2-methyl-5-{2-[2-(pynolidin-1-yl)acetamido]imidazo[1,2-b]pyridazin-6-yl}pyridine-3-carboxamide], the IC50 in assay [1] came to 91 nM; in assay [2] (Homo sapiens), 218 nM.

Turning to `Cc1ncc(-c2ccc3nc(NC(=O)CN4CCC(F)(F)CC4)cn3n2)cc1C(=O)N[C@H](C)c1cc(OC(F)(F)F)ccc1F` [Example 334, 5-{2-[2-(4,4-difluoropiperidin-1-yl)acetamido]-imidazo[1,2-b]pyridazin-6-yl}-N-[(1R)-1-[2-fluoro-5-(trifluoromethoxy)-phenyl]ethyl]-2-methylpyridine-3-carboxamide], the IC50 in assay [1] was 15 nM; in assay [2] (Homo sapiens), 10 nM.
